{"source": "patent US8202555B2", "about": "“Natural pharmaceutical preparations for increasing albumin” (priority 2009, dated 2012)", "key": {"[1]": {"assay": "Tuberculous pleural effusions and serum albumin in BCG-sensitized guinea pigs", "assay_type": "in vivo", "settings": "5 mg/kg, 7 days", "excerpt": "After sensitizing with BCG for 42 days, guinea pig was administrated with preparations for 7 days, sensitized for 2 days continuously, then measured the level of Pleural Effusion, number of white blood cell and content of serum albumin"}, "[2]": {"test_system": "HR-resistant (Isoniazid and Rifampicin) tubercle bacillus", "assay_type": "cell-based", "settings": "serum of mice dosed 25 mg/kg, 10% serum"}, "H37Rv Tubercle Bacillus": {"test_system": "H37Rv Tubercle Bacillus", "assay": "Anti-tubercle bacillus assay in vivo, total lung bacterial count", "settings": "infected C57BL/6 mice, 25 mg/kg", "experimental": "Anti-tubercle bacillus assay is tested in vivo. C57BL/6 mice infected with H37Rv Tubercle Bacillus are divided into 6 groups (n=15), one is normal control group, another is positive control group (INH: 25 mg/kg), in other groups, preparations was added into mice's feed, animals are administrated consecutive 16 weeks.\nExperimental staff Killed 5 mice at the 2nd, 4th, 16th week, obtained lung and spleen, put them into 1 ml 7H9 media, grinded and converted them into 1.5 ml Ep tube, doublely diluted 10 times with 7H9 media, then Plated different dilutions onto 7H11 solid media plates for 4w at 37° C., counted tuberculosis colonys.\nCalculation Formula: (initial number of clone×final broth volume×dilution factor 10^3×2×10)+(initial number of clone colony×final broth volume×dilution factor 10^4×2×10)+(initial number of clone colony×final broth volume×dilution factor 10^5×2×10)/3\nTake tissue for pathological examination, weight lung, Calculation Formula: (initial number of clone×final broth volume×dilution factor 10^3×2×10)+(initial number of clone colony×final broth volume×dilution factor 10^4×2×10)+(initial number of clone colony×final broth volume×dilution factor 10^5×2×10)/3×initial organ weight/organ weight in treatment.\nCount number of Lung bacterial or mouse spleen CFU of every mouse in each group, convert data in accordance with 1 g (CFU)."}, "[3]": {"test_system": "H-resistant (Isoniazid) tubercle bacillus", "assay_type": "cell-based", "settings": "serum of mice dosed 25 mg/kg, 10% serum"}, "[4]": {"test_system": "R-resistant (Rifampicin) tubercle bacillus", "assay_type": "cell-based", "settings": "serum of mice dosed 25 mg/kg, 10% serum"}, "[5]": {"test_system": "HRSE-resistant (Isoniazid, Rifampicin, Streptomycin, Ethambutol-resistant) tubercle bacillus", "assay_type": "cell-based", "settings": "serum of mice dosed 25 mg/kg, 10% serum"}, "[6]": {"assay": "CCl4-induced liver injury (cirrhosis with ascites) in rats: serum proteins, ascites, fibrosis markers", "assay_type": "in vivo, rat", "settings": "4 weeks"}, "SIV": {"test_system": "SIV", "settings": "general statement, no own test; cited from earlier work"}, "[7]": {"assay": "Serum albumin in rats with intra-abdominal infection", "assay_type": "in vivo", "settings": "30 mg/kg", "excerpt": "The mice are divided into 6 groups (n=10), i.e., Normal control group, Negative control group, Positive control group (Panaxoside), in the remaining 3 groups, rats were fed with preparation 1 through intragastric administration for 6 days. Under anesthesia by diethyl ether, abdominal cavity of mice were cut open, experimental staff stick a puncture on appendices with needle to cause it infected, then sew up abdominal wound. Continue administration after surgery, animals were executed for collecting their blood to measure serum albumin levels, results are listed in Table 7."}, "[8]": {"settings": "CCl4 rats with ascites, 0.23 mg/kg intragastrically"}}}
{"compound": "C[C@@H]1C[C@H]2[C@@H]3CCC4=CC(=O)C=C[C@]4(C)[C@@]3(F)[C@@H](O)C[C@]2(C)[C@@]1(O)C(=O)CO", "note": "[Dexamethasone]", "values": [{"measurement": "ALB", "setting": "[1]", "value": "29.05 ± 3.49", "unit": "g/L"}, {"measurement": "Exudates volumes", "setting": "[1]", "value": "1.2 ± 0.44", "unit": "mL"}, {"measurement": "WBC", "setting": "[1]", "value": "19.1 ± 5.24 ×109"}]}
{"compound": "NNC(=O)c1ccncc1", "note": "[INH, Isoniazid]", "values": [{"measurement": "Inhibition rate of serum, HR-resistance", "setting": "[2]", "value": 67, "unit": "%"}, {"measurement": "Total Lung bacterical count, Mean lg (CFU ± SEM)", "setting": "H37Rv Tubercle Bacillus; 2 w", "value": "6.12 ± 0.22 lg (CFU)"}, {"measurement": "Total Lung bacterical count, Mean lg (CFU ± SEM)", "setting": "H37Rv Tubercle Bacillus; 4 w", "value": "5.59 ± 0.20 lg (CFU)"}, {"measurement": "Total Lung bacterical count, Mean lg (CFU ± SEM)", "setting": "H37Rv Tubercle Bacillus; 16 w", "value": "2.77 ± 0.16 lg (CFU)"}, {"measurement": "Inhibition rate of serum, H-resistance", "setting": "[3]", "value": 0, "unit": "%"}, {"measurement": "Inhibition rate of serum, R-resistance", "setting": "[4]", "value": 72, "unit": "%"}, {"measurement": "Inhibition rate of serum, HRSE-resistance", "setting": "[5]", "value": 21, "unit": "%"}]}
{"compound": "COc1cc2c(c(OC)c1OC)-c1ccc(OC)c(=O)cc1[C@@H](NC(C)=O)CC2", "note": "[Colchicine, colchicine]", "values": [{"measurement": "ALB", "setting": "[6]; [8]", "value": "38.1 ± 5.6", "unit": "g/L"}, {"measurement": "ALB/GLB", "setting": "[6]; [8]", "value": "2.8 ± 1.6"}, {"measurement": "GLB", "setting": "[6]; [8]", "value": "17.1 ± 7.7", "unit": "g/L"}, {"measurement": "Incidence (ascites)", "setting": "[6]; CCl4 rats, 0.23 mg/kg", "value": 50, "unit": "%"}, {"measurement": "Animal with ascites n", "setting": "[6]; CCl4 rats, 0.23 mg/kg, of 10 animals", "value": 5}, {"measurement": "HPRO", "setting": "[6]; CCl4 rats, liver, 0.23 mg/kg", "value": "0.29 ± 0.08 mg/g (Liver Weight)"}]}
{"compound": "Cc1cn([C@H]2C[C@H](N=[N+]=[N-])[C@@H](CO)O2)c(=O)[nH]c1=O", "note": "[AZT, Zidovudine]", "values": [{"measurement": "inhibition of infection by SIV", "setting": "SIV", "value": "could not inhibited infection"}]}
{"compound": "Panaxoside", "values": [{"measurement": "ALB", "setting": "[7]", "value": "29.64 ± 2.29", "unit": "g/L"}]}
